Our source for the IC50 values is patent US9085576B2 (AMGEN INC., priority 2013, dated 2015).

In one experiment the target is BACE (Homo sapiens (Human), UniProt P56817). The experiment can be described thus: In vitro BACE cell-based assay (Aβ40 in conditioned medium, sandwich ELISA). A general note: In an ELISA, binding on a coated surface is turned into a signal by an enzyme label.
Another experiment has as its target Cathepsin D (Cat D) (Homo sapiens (Human), UniProt P07339). The experiment can be described thus: In vitro enzymatic Cathepsin D (Cat D) FRET assay. It counts as biochemical. To be noted: read-out: CatD IC50.
For experiment [1], the target named is Beta Secretase enzyme (BACE) (Homo sapiens (Human), UniProt P56817). The experiment is described as follows: In vitro enzymatic BACE FRET assay. To be noted: read-out: BACE1 Enzyme assay IC50. It counts as biochemical.
Sequence of Beta Secretase enzyme (BACE) (P56817 46-501): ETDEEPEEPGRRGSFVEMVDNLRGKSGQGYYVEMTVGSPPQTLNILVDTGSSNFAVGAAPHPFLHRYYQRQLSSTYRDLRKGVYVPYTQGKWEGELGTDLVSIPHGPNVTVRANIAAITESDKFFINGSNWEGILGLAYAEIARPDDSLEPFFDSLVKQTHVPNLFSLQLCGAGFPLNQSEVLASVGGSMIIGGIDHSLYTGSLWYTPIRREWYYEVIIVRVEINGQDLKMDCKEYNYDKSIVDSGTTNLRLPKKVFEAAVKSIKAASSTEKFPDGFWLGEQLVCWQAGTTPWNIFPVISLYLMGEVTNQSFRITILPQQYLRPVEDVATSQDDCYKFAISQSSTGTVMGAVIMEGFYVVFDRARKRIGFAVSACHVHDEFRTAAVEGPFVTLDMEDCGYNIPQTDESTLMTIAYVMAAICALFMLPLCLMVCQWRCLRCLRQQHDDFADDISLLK

Sequence of BACE (P56817 46-501, species assumed): as the sequence (P56817 46-501) above
Sequence of Cathepsin D (Cat D) (P07339 65-412, species assumed): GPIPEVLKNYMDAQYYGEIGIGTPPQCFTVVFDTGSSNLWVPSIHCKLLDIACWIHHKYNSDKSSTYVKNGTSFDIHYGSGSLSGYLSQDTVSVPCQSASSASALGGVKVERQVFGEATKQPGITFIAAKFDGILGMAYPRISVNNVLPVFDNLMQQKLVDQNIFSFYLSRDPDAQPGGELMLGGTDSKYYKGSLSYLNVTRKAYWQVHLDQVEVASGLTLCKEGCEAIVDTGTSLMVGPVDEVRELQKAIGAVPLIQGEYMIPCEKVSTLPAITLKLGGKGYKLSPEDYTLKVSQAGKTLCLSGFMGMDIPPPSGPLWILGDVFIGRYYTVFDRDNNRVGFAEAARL

As for `NC1=N[C@@](c2cc(NC(=O)c3cnc(OCC4CCOCC4)cn3)ccc2F)(C(F)F)[C@H]2C[C@H]2O1` [Example 412, N-(3-((1R,5S,6R)-3-amino-5-(difluoromethyl)-2-oxa-4-azabicyclo[4.1.0]hept-3-en-5-yl)-4-fluorophenyl)-5-((tetrahydro-2H-pyran-4-yl)methoxy)pyrazine-2-carboxamide], the IC50 – broadly, the midpoint of a concentration-inhibition curve – amounted to 0.984 µM at BACE, 640 µM on Cathepsin D (Cat D) and 0.129 µM in experiment [1].

Take `C=CCOc1cnc(C(=O)Nc2ccc(F)c([C@@]3(C(F)F)N=C(N)O[C@@H]4C[C@@H]43)c2)cn1` [Example 414, 5-(allyloxy)-N-(3-((1R,5S,6R)-3-amino-5-(difluoromethyl)-2-oxa-4-azabicyclo[4.1.0]hept-3-en-5-yl)-4-fluorophenyl)pyrazine-2-carboxamide]: the IC50 against BACE was 0.146 µM; at Cathepsin D (Cat D), 924 µM; in experiment [1] it was 0.048 µM.

In the case of `NC1=N[C@@](c2cc(NC(=O)c3cnc(OCC4CCCCC4)cn3)ccc2F)(C(F)F)[C@H]2C[C@H]2O1` [Example 416, N-(3-((1R,5S,6R)-3-amino-5-(difluoromethyl)-2-oxa-4-azabicyclo[4.1.0]hept-3-en-5-yl)-4-fluorophenyl)-5-(cyclohexylmethoxy)pyrazine-2-carboxamide], the IC50 turned out to be 2.5 µM at BACE, 228 µM on Cathepsin D (Cat D) and 0.0121 µM in experiment [1].

As to `CCOc1cnc(C(=O)Nc2ccc(F)c([C@@]3(C(F)F)N=C(N)O[C@@H]4C[C@@H]43)c2)cn1` [Example 417, N-(3-((1R,5S,6R)-3-amino-5-(difluoromethyl)-2-oxa-4-azabicyclo[4.1.0]hept-3-en-5-yl)-4-fluorophenyl)-5-ethoxypyrazine-2-carboxamide], the concentration for half-maximal inhibition (IC50) against BACE is 0.0876 µM; on Cathepsin D (Cat D) it was 1470 µM; in experiment [1] it was 0.115 µM.

For the molecule `NC1=N[C@@](c2cc(NC(=O)c3cnc(OCC4CCCC4)cn3)ccc2F)(C(F)F)[C@H]2C[C@H]2O1` [Example 418, N-(3-((1R,5S,6R)-3-amino-5-(difluoromethyl)-2-oxa-4-azabicyclo[4.1.0]hept-3-en-5-yl)-4-fluorophenyl)-5-(cyclopentylmethoxy)pyrazine-2-carboxamide], the IC50 on BACE turned out to be 0.916 µM; at Cathepsin D (Cat D), 891 µM; in experiment [1], 0.0261 µM.

With `NC1=N[C@@](c2cc(NS(=O)(=O)c3ccc(Cl)cn3)ccc2F)(C(F)F)[C@H]2C[C@H]2O1` [Example 421, N-(3-((1R,5S,6R)-3-amino-5-(difluoromethyl)-2-oxa-4-azabicyclo[4.1.0]hept-3-en-5-yl)-4-fluorophenyl)-5-chloropyridine-2-sulfonamide], the IC50 is greater than 15.6 µM at BACE, 224 µM at Cathepsin D (Cat D) and 14.2 µM in experiment [1].

Consider `COC[C@H](C)NC(=O)c1ccc(F)c([C@]2(C(F)F)N=C(N)O[C@H]3C[C@H]32)c1` [Example 427, 3-((1S,5R,6S)-3-Amino-5-(difluoromethyl)-2-oxa-4-azabicyclo[4.1.0]hept-3-en-5-yl)-4-fluoro-N—((S)-1-methoxypropan-2-yl)benzamide], for which the IC50 at BACE is greater than 15.6 µM; at Cathepsin D (Cat D), greater than 400 µM; in experiment [1] it was greater than 40 µM.

Regarding `COC[C@H](C)NC(=O)c1ccc(F)c([C@@]2(C(F)F)N=C(N)O[C@@H]3C[C@@H]32)c1` [Example 428, 3-((1R,5S,6R)-3-Amino-5-(difluoromethyl)-2-oxa-4-azabicyclo[4.1.0]hept-3-en-5-yl)-4-fluoro-N—((S)-1-methoxypropan-2-yl)benzamide], the IC50 against BACE was greater than 15.6 µM; at Cathepsin D (Cat D), 1520 µM; in experiment [1], greater than 40 µM.

Consider `CC#Cc1cncc(-c2ccc(F)c([C@@]3(C(F)F)N=C(N)O[C@@H]4C[C@@H]43)c2)c1` [Example 429, (1R,5S,6R)-5-(difluoromethyl)-5-(2-fluoro-5-(5-(prop-1-yn-1-yl)pyridin-3-yl)phenyl)-2-oxa-4-azabicyclo[4.1.0]hept-3-en-3-amine], for which the IC50 was 3.36 µM at BACE, 72.9 µM at Cathepsin D (Cat D) and 1.05 µM in experiment [1].

`CC#Cc1cncc(-c2ccc(F)c([C@]3(C(F)F)N=C(N)O[C@H]4C[C@H]43)c2)c1` [Example 430]: the IC50 against BACE is greater than 15.6 µM; at Cathepsin D (Cat D), 1020 µM; in experiment [1], greater than 40 µM.

Regarding `CC#Cc1cnn(-c2ccc(F)c([C@@]3(C(F)F)N=C(N)O[C@@H]4C[C@@H]43)c2)c1` [Example 434, (1R,5S,6R)-5-(difluoromethyl)-5-(2-fluoro-5-(4-(prop-1-yn-1-yl)-1H pyrazol-1-yl)phenyl)-2-oxa-4-azabicyclo[4.1.0]hept-3-en-3-amine], the IC50 against BACE turned out to be 0.561 µM; on Cathepsin D (Cat D), 386 µM; in experiment [1], 1.21 µM.

Consider `NC1=N[C@@](c2cc(N3Cc4cc(Cl)cnc4C3=O)ccc2F)(C(F)F)[C@H]2C[C@H]2O1` [Example 437, 6-(3-((1R,5S,6R)-3-amino-5-(difluoromethyl)-2-oxa-4-azabicyclo[4.1.0]hept-3-en-5-yl)-4-fluorophenyl)-3-chloro-5H-pyrrolo[3,4-b]pyridin-7(6H)-one], for which the IC50 was 0.384 µM against BACE, 659 µM at Cathepsin D (Cat D) and 2.19 µM in experiment [1].

Turning to `COc1cnc(C(=O)Nc2cccc([C@@]3(C(F)F)N=C(N)O[C@@H]4C[C@@H]43)c2)cn1` [Example 438, N-(3-((1R,5S,6R)-3-amino-5-(difluoromethyl)-2-oxa-4-azabicyclo[4.1.0]hept-3-en-5-yl)phenyl)-5-methoxypyrazine-2-carboxamide], the results for the IC50 (against BACE; at Cathepsin D (Cat D); in experiment [1]) were 0.126 µM, 793 µM and 0.5 µM, respectively.

As for `NC1=N[C@@](c2cc(-c3nnc(-c4ccc(F)cc4)[nH]3)ccc2F)(C(F)F)[C@H]2C[C@H]2O1` [Example 440, (1R,5S,6R)-5-(difluoromethyl)-5-(2-fluoro-5-(5-(4-fluorophenyl)-4H-1,2,4-triazol-3-yl)phenyl)-2-oxa-4-azabicyclo[4.1.0]hept-3-en-3-amine], the IC50 against BACE is greater than 15.6 µM; at Cathepsin D (Cat D), 250 µM; in experiment [1], greater than 40 µM.

For `NC1=N[C@](CF)(c2cc(NC(=O)c3ncc(Cl)cc3CF)ccc2Cl)[C@H]2C[C@H]2O1` [Example 441, N-(3-((1R,5S,6R)-3-amino-5-(fluoromethyl)-2-oxa-4-azabicyclo[4.1.0]hept-3-en-5-yl)-4-chlorophenyl)-5-chloro-3-(fluoromethyl) picolinamide], the IC50 was found to be 0.0159 µM at BACE, 444 µM on Cathepsin D (Cat D) and 0.0252 µM in experiment [1].

As to `NC1=N[C@](CF)(c2cc(NC(=O)c3ncc(Cl)cc3F)ccc2Cl)[C@H]2C[C@H]2O1` [Example 442, N-(3-((1R,5S,6R)-3-amino-5-(fluoromethyl)-2-oxa-4-azabicyclo[4.1.0]hept-3-en-5-yl)-4-chlorophenyl)-5-chloro-3-fluoropicolinamide], the IC50 against BACE came out at 0.0134 µM; on Cathepsin D (Cat D), 1140 µM; in experiment [1], 0.0544 µM.

Turning to `Cc1cc(Cl)cnc1C(=O)Nc1ccc(Cl)c([C@@]2(CF)N=C(N)O[C@@H]3C[C@@H]32)c1` [Example 443, N-(3-((1R,5S,6R)-3-amino-5-(fluoromethyl)-2-oxa-4-azabicyclo[4.1.0]hept-3-en-5-yl)-4-chlorophenyl)-5-chloro-3-methylpicolinamide], the concentration for half-maximal inhibition (IC50) against BACE was determined as 0.0136 µM; at Cathepsin D (Cat D), 517 µM; in experiment [1], 0.0373 µM.

With `NC1=N[C@](CF)(c2cc(NC(=O)c3ccc(F)cn3)ccc2Cl)[C@H]2C[C@H]2O1` [Example 445, N-(3-((1R,5S,6R)-3-amino-5-(fluoromethyl)-2-oxa-4-azabicyclo[4.1.0]hept-3-en-5-yl)-4-chlorophenyl)-5-fluoropicolinamide], the IC50 at BACE is 0.031 µM; at Cathepsin D (Cat D) it was 1270 µM; in experiment [1], 0.29 µM.

For the molecule `N#Cc1cnc2c(Nc3ccc(F)c([C@@]4(C(F)F)N=C(N)O[C@@H]5C[C@@H]54)c3)nccc2c1` [Example 446, 8-((3-((1R,5S,6R)-3-amino-5-(difluoromethyl)-2-oxa-4-azabicyclo[4.1.0]hept-3-en-5-yl)-4-fluorophenyl)amino)-1,7-naphthyridine-3-carbonitrile], the IC50 against BACE is 0.107 µM; at Cathepsin D (Cat D), 658 µM; in experiment [1], 0.0558 µM.

On to `COc1cnc2c(Nc3ccc(F)c([C@@]4(C(F)F)N=C(N)O[C@@H]5C[C@@H]54)c3)nccc2n1` [Example 447, (1R,5S,6R)-5-(difluoromethyl)-5-(2-fluoro-5-((2-methoxypyrido[3,4-b]pyrazin-5-yl)amino)phenyl)-2-oxa-4-azabicyclo[4.1.0]hept-3-en-3-amine], for which the results for the IC50 (against BACE; at Cathepsin D (Cat D); in experiment [1]) were 0.167 µM, 501 µM and 0.139 µM, respectively.

Turning to `COc1cnc2c(Nc3ccc(F)c([C@@]4(C(F)F)N=C(N)O[C@@H]5C[C@@H]54)c3)ncc(F)c2c1` [Example 448, (1R,5S,6R)-5-(difluoromethyl)-5-(2-fluoro-5-((5-fluoro-3-methoxy-1,7-naphthyridin-8-yl)amino)phenyl)-2-oxa-4-azabicyclo[4.1.0]hept-3-en-3-amine], the values for the IC50 (against BACE; on Cathepsin D (Cat D); in experiment [1]) were 0.0863 µM, 169 µM and 0.117 µM, respectively.

In the case of `NC1=N[C@@](c2cc(Nc3ncnc4cc(C(F)(F)F)cnc34)ccc2F)(C(F)F)[C@H]2C[C@H]2O1` [Example 449, (1R,5S,6R)-5-(difluoromethyl)-5-(2-fluoro-5-((7-(trifluoromethyl)pyrido[3,2-d]pyrimidin-4-yl)amino)phenyl)-2-oxa-4-azabicyclo[4.1.0]hept-3-en-3-amine], the IC50 was 0.268 µM against BACE, 79.4 µM on Cathepsin D (Cat D) and 0.124 µM in experiment [1].

Regarding `N#Cc1cnc(C(=O)Nc2ccc(Cl)c([C@@]3(CF)N=C(N)O[C@@H]4C[C@@H]43)c2)c(F)c1` [Example 450, N-(3-((1R,5S,6R)-3-amino-5-(fluoromethyl)-2-oxa-4-azabicyclo[4.1.0]hept-3-en-5-yl)-4-chlorophenyl)-5-cyano-3-fluoropicolinamide], the figures for the IC50 (against BACE; at Cathepsin D (Cat D); in experiment [1]) were 0.00817 µM, greater than 400 µM and 0.0503 µM, respectively.
